The values below come from patent US20110229570A1, “ORALLY RAPIDLY DISINTEGRATING TABLET AND PROCESS FOR PRODUCING SAME” (priority 2008, published 2011).

A short description of data set [1]: Hardness of tablet (tablet hardness tester). Particulars: 1000 kg/punch; for Hardness, tablet obtained by compressing an excipient only: 300 mg tablet, flat punch 10 mm; for Hardness, tablet obtained by compressing a mixture of an excipient and a water-insoluble polymer: 300 mg. Type of data set: physicochemical. The procedure: A hardness of tablet was measured using a tablet hardness tester (manufactured by Schleuniger, type: 6D). The measurement was carried out thrice, and a hardness of tablet was obtained on an average thereof.

A short description of data set [2]: Water wettability (wetness time) of tablet. Particulars: 1000 kg/punch; for Wetness time, tablet obtained by compressing an excipient only: 300 mg tablet, flat punch 10 mm; for Wetness time, tablet obtained by compressing a mixture of an excipient and a water-insoluble polymer: 300 mg. Type of data set: physicochemical. As for the experimental part: A water wettability (wetness time) of a tablet was measured in accordance with a known procedure [Chem. Pharm. Bull. 44 (1), 2121-2127 (1996)] as below. Specifically, purified water (6 mL) was put in a weighing dish, and thereon were placed quarto tissue papers (205 mm×120 mm, KimWipe S-200, manufactured by NIPPON PAPER CRECIA Co., LTD). The papers were entirely moistened, and then thereon was gently placed one tablet, and a wetness time required for entirely moistening the tablet was measured.

Where [3] appears, read: (*1) 97 parts excipient + 3 parts HPMC-AS HF.
Where [4] appears, read: (*2) 90 parts excipient + 10 parts HPMC-AS HF.

For `OC[C@@H](O)[C@@H](O)[C@H](O)[C@H](O)CO` [D-mannitol], in data set [1], the “Hardness, tablet obtained by compressing an excipient only” value amounted to 12 N. Besides, in data set [1] (setting [3]), the “Hardness, tablet obtained by compressing a mixture of an excipient and a water-insoluble polymer” value is 53 (*1) N. The “Wetness time, tablet obtained by compressing an excipient only” value in data set [2] was 18 s. Also, the “Wetness time, tablet obtained by compressing a mixture of an excipient and a water-insoluble polymer” value in data set [2] (setting [3]) was 43 (*1) seconds.

As for `OC[C@@H](O)[C@@H](O)CO` [Erythritol], the “Hardness, tablet obtained by compressing an excipient only” value in data set [1] is under 4 N. Further, the “Hardness, tablet obtained by compressing a mixture of an excipient and a water-insoluble polymer” value in data set [1] (setting [4]) is reported as 23 (*2) N. Besides, the “Wetness time, tablet obtained by compressing a mixture of an excipient and a water-insoluble polymer” value in data set [2] (setting [4]) was 37 (*2) seconds.

Turning to `OC[C@H]1O[C@@](CO)(O[C@H]2O[C@H](CO)[C@@H](O)[C@H](O)[C@H]2O)[C@@H](O)[C@@H]1O` [Purified sucrose], the “Hardness, tablet obtained by compressing an excipient only” value in data set [1] was 41 N. Moreover, the “Wetness time, tablet obtained by compressing an excipient only” value in data set [2] came out at 3 s.

In the case of `OC[C@@H](O)[C@@H](O)[C@H](O)[C@@H](O)CO` [Sorbitol], the “Hardness, tablet obtained by compressing an excipient only” value in data set [1] stood at 229 N. In data set [1] (setting [3]), the “Hardness, tablet obtained by compressing a mixture of an excipient and a water-insoluble polymer” value was 207 (*1) N. In data set [2], the “Wetness time, tablet obtained by compressing an excipient only” value is over 300 s. Moreover, the “Wetness time, tablet obtained by compressing a mixture of an excipient and a water-insoluble polymer” value in data set [2] (setting [3]) is >300 (*1) seconds.

As to `OC[C@@H](O)[C@H](O)[C@@H](O)CO` [Xylitol], the “Hardness, tablet obtained by compressing an excipient only” value in data set [1] was found to be 12 N. The “Hardness, tablet obtained by compressing a mixture of an excipient and a water-insoluble polymer” value in data set [1] (setting [4]) is on record as 38 (*2) N. For the same molecule, the “Wetness time, tablet obtained by compressing an excipient only” value in data set [2] was 3 s. Besides, in data set [2] (setting [4]), the “Wetness time, tablet obtained by compressing a mixture of an excipient and a water-insoluble polymer” value is recorded as 74 (*2) seconds.
